pIC50, pKi: −log10 of the molar value. Where “and” joins values, the source holds several entries; their conditions need not be identical. Identical values can stand only once. Like-named read-outs stand apart in the source and are kept apart here.
Columns and labels:
[1] = Pharmacokinetic measurements in rats (intravenous and intra-tracheal dosing); type: in vivo; conditions: rat; for concentration at 0.1 h / concentration at 1.5 h / concentration at 24 h: lung, read-out: lung concentration (nM) at time (h)
[2] = biological target: T1, PDGFRβ (Homo sapiens (Human), UniProt P09619); experiment: Duration of action (washout) against PDGF-BB induced phosphorylation of PDGFRβ in human fetal lung fibroblast cells; type: cell-based; conditions: MRC-5 cells, after wash-out, rhuPDGF-BB; experiments in Groups 1-4
T1 sequence (P09619 33-1106): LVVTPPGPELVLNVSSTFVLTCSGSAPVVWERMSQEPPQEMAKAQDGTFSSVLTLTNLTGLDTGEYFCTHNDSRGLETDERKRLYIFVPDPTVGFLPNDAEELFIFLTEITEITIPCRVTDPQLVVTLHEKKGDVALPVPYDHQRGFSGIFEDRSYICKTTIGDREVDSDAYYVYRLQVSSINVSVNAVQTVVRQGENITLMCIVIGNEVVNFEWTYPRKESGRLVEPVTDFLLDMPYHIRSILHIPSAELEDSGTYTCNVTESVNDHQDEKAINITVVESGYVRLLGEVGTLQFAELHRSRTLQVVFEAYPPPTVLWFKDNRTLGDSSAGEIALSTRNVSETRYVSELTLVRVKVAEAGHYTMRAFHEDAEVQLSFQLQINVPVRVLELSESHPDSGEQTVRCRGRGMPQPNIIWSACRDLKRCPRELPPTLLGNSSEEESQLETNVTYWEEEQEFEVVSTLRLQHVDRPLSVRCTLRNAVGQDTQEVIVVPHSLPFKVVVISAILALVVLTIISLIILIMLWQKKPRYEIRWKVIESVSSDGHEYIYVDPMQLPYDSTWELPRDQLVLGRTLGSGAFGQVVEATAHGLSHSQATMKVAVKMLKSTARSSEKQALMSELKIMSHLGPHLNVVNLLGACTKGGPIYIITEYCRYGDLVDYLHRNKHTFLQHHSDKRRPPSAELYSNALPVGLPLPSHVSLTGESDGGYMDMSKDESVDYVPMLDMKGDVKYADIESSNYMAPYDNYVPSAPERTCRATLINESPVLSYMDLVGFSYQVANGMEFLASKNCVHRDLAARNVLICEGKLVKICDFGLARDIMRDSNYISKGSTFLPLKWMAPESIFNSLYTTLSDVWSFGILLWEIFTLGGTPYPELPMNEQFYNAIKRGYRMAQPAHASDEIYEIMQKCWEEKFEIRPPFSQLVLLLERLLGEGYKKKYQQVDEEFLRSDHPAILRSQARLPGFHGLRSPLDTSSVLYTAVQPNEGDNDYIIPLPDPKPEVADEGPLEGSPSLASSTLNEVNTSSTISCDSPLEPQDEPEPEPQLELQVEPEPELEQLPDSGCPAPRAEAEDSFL

[3] = biological target: T1, PDGFRβ; experiment: PDGF-BB induced phosphorylation of PDGFRβ in fibroblasts (MRC5 cells, HTRF); type: cell-based
[4] = biological target: T1, PDGFRβ; conditions: read-out: Ki PDGFRβ
[5] = PAMPA permeability assay; type: in vitro ADME; conditions: for Papp at 5 h, 10 μM: pH 7, pH 7, 10 μM
[6] = tested on: MRC5 cells; experiment: Cell viability assay in MRC5 cells (MTT)
[7] = MRC5 cells, n = 1 unless otherwise indicated, read-out: PDGFBB-induced PDGFRβ phosphorylation in MRC5 cells (IC50)
[8] = mean, n = 2 unless otherwise indicated
[9] = PAMPA, pH 7, PAMPA, donor and acceptor compartments

COC(=O)c1ccc2c(c1)NC(=O)/C2=C(\Nc1ccc(C(=O)NOCCN(C)C)cc1)c1ccccc1 [Example 3, (Z)-Methyl 3-(((4-((2-(dimethylamino)ethoxy)carbamoyl)phenyl)amino)(phenyl)methylene)-2-oxoindoline-6-carboxylate]
concentration at 0.1 h ([1]; male, CD, iv, i.v. dosing, 0.1 h): 719 nM | concentration at 1.5 h ([1]; male, CD, iv, i.v. dosing, 1.5 h): 325 nM | concentration at 24 h ([1]; male, CD, iv, i.v. dosing, 24 h): 28 nM | concentration at 0.1 h ([1]; male, CD, other: intra-tracheal, i.t. dosing, 0.1 h): 6690 nM | concentration at 1.5 h ([1]; male, CD, other: intra-tracheal, i.t. dosing, 1.5 h): 1680 nM | concentration at 24 h ([1]; male, CD, other: intra-tracheal, i.t. dosing, 24 h): 247 nM | Kp at 0.1 h ([1]; male, CD, lung/plasma, iv, i.v. dosing, 0.1 h, read-out: lung/plasma ratio at time(h)): 126 | Kp at 1.5 h ([1]; male, CD, lung/plasma, iv, i.v. dosing, 1.5 h, read-out: lung/plasma ratio at time(h)): 315 | Kp at 0.1 h ([1]; male, CD, lung/plasma, other: intra-tracheal, i.t. dosing, 0.1 h, read-out: lung/plasma conc ratio at time(h)): 176 | Kp at 1.5 h ([1]; male, CD, lung/plasma, other: intra-tracheal, i.t. dosing, 1.5 h, read-out: lung/plasma conc ratio at time(h)): 1430 | Kp at 24 h ([1]; male, CD, lung/plasma, other: intra-tracheal, i.t. dosing, 24 h, read-out: lung/plasma conc ratio at time(h)): 503 | MRT ([1]; male, CD, plasma, iv, i.v. dosing): 3 h | clearance ([1]; male, CD, plasma, iv, i.v. dosing (i.v. dose 0.1-0.5 per compound)): 285 mL/min/kg | Vd ([1]; male, CD, plasma, iv, i.v. dosing, read-out: Vss): 51 L/kg | half-life ([1]; male, CD, plasma, iv, i.v. dosing, read-out: t½ (converted)): 3.1 h | Lung conc i.t./i.v. Ratio at time (h) ([1]; 0.1 h): 9.3 | Lung conc i.t./i.v. Ratio at time (h) ([1]; 1.5 h): 5.2 | Lung conc i.t./i.v. Ratio at time (h) ([1]; 24 h): 8.8 | i.t. BAV (%) ([1]; i.t. dosing (i.t. dose 0.1-0.5 per compound)): 325% | BAL % administered dose at time (h) ([1]; i.t. dosing, 0.1 h): 3% | BAL % administered dose at time (h) ([1]; i.t. dosing, 1.5 h): 0.3% | BAL % administered dose at time (h) ([1]; i.t. dosing, 24 h): 0.1% | BAL % administered dose at time (h) ([1]; i.v. dosing, 0.1 h): 0.03% | BAL % administered dose at time (h) ([1]; i.v. dosing, 1.5 h): 0.02% | BAL % administered dose at time (h) ([1]; i.v. dosing, 24 h): BLQ | % phos: percentage phosphorylation after wash-out relative to maximal phosphorylation (100%) [2]: 34.6% | pIC50 [3, 7]: 8.15 | pKi [4, 8]: 7.94 | % Recovery ([5]; PAMPA, donor and acceptor compartments): 76% and 55.3% | Papp at 5 h, 10 μM ([5]; PAMPA, 5 hr): 0.0384 ×10⁻⁶ cm/s | Mean Papp ([5]; pH 7, 10 μM, 5 hr): 0.023 10^−6 cm s^−1 | Cell viability at 100 nM (%) [6]: 106% | Cell viability at 300 nM (%) [6]: 85.4% | Cell viability at 1000 nM (%) [6]: 67.2%

CCN1CCN(CCONC(=O)c2ccc(N/C(=C3\C(=O)Nc4cc(C(=O)OC)c(C)cc43)c3ccccc3)cc2)CC1 [Example 36]
pIC50 [3, 7]: 8.03 | pKi [4, 8]: 8.07 | recovery at 5 hr, 10 μM [5, 9]: 53.1% | Papp at 5 h, 10 μM ([5]; PAMPA, 5 hr): 0.0301 ×10⁻⁶ cm/s | Cell viability at 100 nM (%) [6]: 108.8% | Cell viability at 300 nM (%) [6]: 93% | Cell viability at 1000 nM (%) [6]: 65.9%

COC(=O)c1cc2c(cc1C)/C(=C(/Nc1ccc(S(=O)(=O)N(C)OCCN(C)CCO)cc1)c1ccccc1)C(=O)N2 [Example 10, (Z)-Methyl 3-(((4-(N-(2-((2-hydroxyethyl)(methyl)amino)ethoxy)-N-methylsulfamoyl)phenyl)amino)(phenyl)methylene)-5-methyl-2-oxoindoline-6-carboxylate]
pIC50 [3]: 7.87 | pKi [4]: 7.76 | recovery at 5 hr, 10 μM [5, 9]: 92.6% | Papp at 5 h, 10 μM ([5]; PAMPA, 5 hr): 24.8 ×10⁻⁶ cm/s | Cell viability at 100 nM (%) [6]: 105.9% | Cell viability at 300 nM (%) [6]: 100.9% | Cell viability at 1000 nM (%) [6]: 42%

COC(=O)c1cc2c(cc1C)/C(=C(/Nc1ccc(C(=O)N(C)OCCN3C4CCC3CNC4)cc1)c1ccccc1)C(=O)N2 [Example 60]
pIC50 [3, 7]: 8.25 | pKi [4, 8]: 7.89 | Papp at 5 h, 10 μM ([5]; PAMPA, 5 hr): 0.0503 ×10⁻⁶ cm/s | recovery at 5 hr, 10 μM ([5]; pH 7, PAMPA, donor and acceptor compartments): 69.2% | Cell viability at 100 nM (%) [6]: 88.8% | Cell viability at 300 nM (%) [6]: 84.4% | Cell viability at 1000 nM (%) [6]: 0.2%

COC(=O)c1cc2c(cc1C)/C(=C(/Nc1ccc(C(=O)NOCCCN(C)C)c(C)c1)c1ccccc1)C(=O)N2 [Example 29]
pIC50 [3, 7]: 8.50 | pKi [4, 8]: 8.13 | recovery at 5 hr, 10 μM [5, 9]: 65.1% | Papp at 5 h, 10 μM ([5]; PAMPA, 5 hr): 0.00415 ×10⁻⁶ cm/s | Cell viability at 100 nM (%) [6]: 92% | Cell viability at 300 nM (%) [6]: 85.8% | Cell viability at 1000 nM (%) [6]: 91.8%

COC(=O)c1cc2c(cc1C)/C(=C(/Nc1ccc(C(=O)N(C)OCCN3C[C@@H]4C[C@H]3CN4)cc1)c1ccccc1)C(=O)N2 [Example 59]
pIC50 [3, 7]: 7.60 | pKi [4, 8]: 8.04 | recovery at 5 hr, 10 μM [5, 9]: 69.6% | Papp at 5 h, 10 μM ([5]; PAMPA, 5 hr): 0.0364 ×10⁻⁶ cm/s | Cell viability at 100 nM (%) [6]: 123.5% | Cell viability at 300 nM (%) [6]: 107.7% | Cell viability at 1000 nM (%) [6]: 103.8%

COC(=O)c1cc2c(cc1C)/C(=C(/Nc1ccc(C(=O)NOCCCN(C)C)cc1)c1ccccc1)C(=O)N2 [Example 27]
pIC50 [3, 7]: 7.98 | pKi [4, 8]: 8.32 | recovery at 5 hr, 10 μM [5, 9]: 61.2% | Papp at 5 h, 10 μM ([5]; PAMPA, 5 hr): 0.00146 ×10⁻⁶ cm/s | Cell viability at 100 nM (%) [6]: 94.9% | Cell viability at 300 nM (%) [6]: 88.6% | Cell viability at 1000 nM (%) [6]: 86.4%

COC(=O)c1cc2c(cc1C)/C(=C(/Nc1ccc(C(=O)NOCCN3CCN(C)CC3)c(F)c1)c1ccccc1)C(=O)N2 [Example 32]
pIC50 [3, 7]: 8.51 | pKi [4, 8]: 8.31 | recovery at 5 hr, 10 μM [5, 9]: 42.8% | Papp at 5 h, 10 μM ([5]; PAMPA, 5 hr): 0.0192 ×10⁻⁶ cm/s | Cell viability at 100 nM (%) [6]: 93.5% | Cell viability at 300 nM (%) [6]: 82.3% | Cell viability at 1000 nM (%) [6]: 66.3%

Reference: patent publication US11046672B2, “Indolinones compounds and their use in the treatment of fibrotic diseases” (RESPIVERT LIMITED, priority 2015, dated 2021)
